What was measured:
[1] = tested on: intracellular calcium concentration; test: Intracellular calcium ion concentration with calcium probe Fluo4-AM (Example 5); type: cell-based; settings: cariporide 100 μM, empagliflozin 50 μM, menthol 200 μM, combination 50 μM + 200 μM
Description: Intracellular calcium overload is an important factor in the transition of myocardial cells from reversible to irreversible damage. Intracellular calcium overload can be seen in a variety of cardiac pathological states, such as cardiac remodeling, myocardial ischemia-reperfusion injury, viral myocarditis, dilated cardiomyopathy, arrhythmias, and congestive heart failure. […] Empagliflozin can act on the sodium-hydrogen exchanger 1 (NHE1) on the myocardial cell membrane. When myocardial ischemia occurs, myocardial cell energy metabolism is impaired, and myocardial cells switch from fatty acid metabolism to sugar-free glycolysis, producing a large amount of lactic acid, which reduces the intracellular pH. As a regulatory protein for cell pH homeostasis, NHE1 can transport H^+ out of the cell by exchanging extracellular sodium ions, resulting in an increase in the intracellular sodium ion concentration. […] When mitochondrial function is impaired, the release of ROS increases, and ROS can further stimulate L-type calcium channels, promoting Ca^2+ influx, creating a vicious cycle. Empagliflozin inhibits the activity of NHE1 and can indirectly reduce the intracellular calcium ion concentration. Menthol, as an L-type calcium channel blocker, can synergistically reduce the intracellular calcium ion concentration with empagliflozin, playing a synergistic role. In order to verify this synergistic mechanism, the intracellular calcium ion concentration was detected using the calcium ion probe Fluo4-AM.
The experiment was divided into 5 groups, including control group (no drug group), cariporide group (positive control group, 100 μM), EMPA-50 (empagliflozin, 50 μM), M-200 (menthol, 200 μM), and E50+M200 (combination of 50 μM empagliflozin and 200 μM menthol).
• (1) Take an appropriate amount of Fluo4-AM stock solution (2 mM, BeyoTime, S1060) and dilute it to a 10 μM working solution with HBSS; • (2) For the cells to be tested (covering the bottom of the dish), remove the culture medium and wash with HBSS three times; • (3) Add 25 μL of Fluo4-AM working solution to each well, and then add 25 μL of compound solution to each well; • (4) Incubate at 37° C. for 30 min for fluorescent probe loading; • (5) Wash three times with HBSS, and add 100 μL of HBSS containing 10 mM CaCl2) to each well. Detect quantitatively the fluorescence of Fluo4-AM using a multifunctional fluorescence microplate reader (excitation wavelength 488 nm, emission wavelength 520 nm) to determine the changes in intracellular calcium ions.
Since empagliflozin indirectly affects intracellular calcium concentration by inhibiting NHE1, the intracellular environment was made acidic by using ammonium chloride solution to simulate the environment during myocardial ischemia, and the effect of the administered composition on intracellular calcium ions was tested. The NHE1 inhibitor cariporide was used as a positive control. The above step (3) was changed to add 25 μL of Fluo4-AM working solution to each well, mix the test compound with 80 mM NH4Cl solution at a 1:1 ratio, and then add 25 μL mixed solution of the compound and NH4Cl to each well (the final concentration of NH4Cl was 20 mM), and the remaining steps were the same as above.

[2] = tested on: Rat cardiomyocytes (H9c2); test: GD-induced myocardial cell damage model, CCK-8, SGLT2 inhibitors with L-menthol (Example 9); type: cell-based; settings: single drugs: SGLT2 inhibitor 50 μM or menthol 200 μM; GD 36-48 h; untreated group 54.7%
Description: In this example, the protective effect of the drug composition on myocardial cells was evaluated by using a GD-induced myocardial cell damage model. […] Rat cardiomyocytes (H9c2) were purchased from the Chinese Academy of Sciences Stem Cell Bank. The cardiomyocytes were cultured in high-glucose DMEM medium (Gibco, 11995-065) containing 10% fetal bovine serum and 1% penicillin/streptomycin, and incubated in a 37° C., 5% CO2 incubator. […] When the cells reached confluence, the DMEM medium was removed, and the cells were washed once with PBS. […] The synergistic coefficient was calculated using the Zero interaction dose model, with the formula: CI=(EAB−EA*EB)/(EA+EB−EA*EB), wherein CI is the synergistic effect index, EAB is the efficacy index of the combination of drugs, and EA and EB are the efficacy indices of the individual drugs, respectively.

Compound	effect on intracellular calcium concentration (Fluo4-AM fluorescence) ([1]; NH4Cl present (20 mM, acidic intracellular conditions))	effect on intracellular calcium concentration (Fluo4-AM fluorescence) ([1]; absence of NH4Cl)	cell survival rate [2]
CC(C)c1ccc(C(=O)NC(=N)N)cc1S(C)(=O)=O [cariporide]	significantly reduce intracellular calcium concentration	almost no effect	
CCOc1ccc(Cc2cc([C@@H]3O[C@H](CO)[C@@H](O)[C@H](O)[C@H]3O)ccc2Cl)cc1 [dapagliflozin]			58.9%
CCOc1ccc(Cc2cc([C@]34OC[C@](CO)(O3)[C@@H](O)[C@H](O)[C@H]4O)ccc2Cl)cc1 [ertugliflozin]			58.6%
canagliflozin			60.2%
